In patent US9249129B2, “Morpholino substituted urea derivatives as mTOR inhibitors” (CELLZOME LIMITED, priority 2010, dated 2016):
Where two headings read alike, the source gives them in different places.

Assays:
Format in all cases: binding
PI3Kα = target: T1, PI3Kα (Homo sapiens, UniProt P42336); experiment: kinobeads assay, PI3K alpha (dot blot detection); conditions: Table 4, read-out: Inhibition values (IC50) PI3Ka
T1 construct: endogenous in cells; host or cells: Jurkat cells (ATCC TIB-152) lysate, the only lysate described
T1 sequence (P42336 whole entry): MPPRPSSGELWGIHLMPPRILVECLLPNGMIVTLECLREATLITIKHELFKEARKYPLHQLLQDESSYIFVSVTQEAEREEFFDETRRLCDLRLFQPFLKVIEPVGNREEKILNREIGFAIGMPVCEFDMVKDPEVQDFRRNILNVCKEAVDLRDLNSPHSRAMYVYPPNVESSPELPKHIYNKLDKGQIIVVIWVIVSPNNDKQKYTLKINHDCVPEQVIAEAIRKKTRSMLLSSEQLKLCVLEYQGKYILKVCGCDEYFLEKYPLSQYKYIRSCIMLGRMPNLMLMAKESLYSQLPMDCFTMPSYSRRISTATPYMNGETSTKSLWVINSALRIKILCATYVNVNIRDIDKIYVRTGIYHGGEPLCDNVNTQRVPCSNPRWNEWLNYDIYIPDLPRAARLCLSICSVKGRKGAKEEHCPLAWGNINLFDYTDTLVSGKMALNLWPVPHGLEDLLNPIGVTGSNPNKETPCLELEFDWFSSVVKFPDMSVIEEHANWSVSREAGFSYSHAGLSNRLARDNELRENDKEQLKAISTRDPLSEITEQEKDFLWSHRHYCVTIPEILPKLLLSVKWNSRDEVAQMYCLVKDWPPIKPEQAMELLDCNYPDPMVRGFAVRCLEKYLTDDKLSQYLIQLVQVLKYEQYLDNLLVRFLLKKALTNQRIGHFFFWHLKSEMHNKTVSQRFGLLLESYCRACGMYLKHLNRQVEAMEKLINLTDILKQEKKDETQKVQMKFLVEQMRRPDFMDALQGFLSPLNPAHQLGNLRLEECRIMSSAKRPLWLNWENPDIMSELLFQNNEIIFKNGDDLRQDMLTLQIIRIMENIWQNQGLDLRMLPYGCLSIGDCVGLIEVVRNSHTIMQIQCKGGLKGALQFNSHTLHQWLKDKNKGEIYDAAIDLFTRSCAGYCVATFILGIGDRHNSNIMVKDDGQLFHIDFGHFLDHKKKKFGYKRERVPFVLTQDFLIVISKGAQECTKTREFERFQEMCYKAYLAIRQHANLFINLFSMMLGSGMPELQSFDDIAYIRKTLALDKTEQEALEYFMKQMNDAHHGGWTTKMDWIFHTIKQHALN
T1 sequence (P27986 whole entry partner): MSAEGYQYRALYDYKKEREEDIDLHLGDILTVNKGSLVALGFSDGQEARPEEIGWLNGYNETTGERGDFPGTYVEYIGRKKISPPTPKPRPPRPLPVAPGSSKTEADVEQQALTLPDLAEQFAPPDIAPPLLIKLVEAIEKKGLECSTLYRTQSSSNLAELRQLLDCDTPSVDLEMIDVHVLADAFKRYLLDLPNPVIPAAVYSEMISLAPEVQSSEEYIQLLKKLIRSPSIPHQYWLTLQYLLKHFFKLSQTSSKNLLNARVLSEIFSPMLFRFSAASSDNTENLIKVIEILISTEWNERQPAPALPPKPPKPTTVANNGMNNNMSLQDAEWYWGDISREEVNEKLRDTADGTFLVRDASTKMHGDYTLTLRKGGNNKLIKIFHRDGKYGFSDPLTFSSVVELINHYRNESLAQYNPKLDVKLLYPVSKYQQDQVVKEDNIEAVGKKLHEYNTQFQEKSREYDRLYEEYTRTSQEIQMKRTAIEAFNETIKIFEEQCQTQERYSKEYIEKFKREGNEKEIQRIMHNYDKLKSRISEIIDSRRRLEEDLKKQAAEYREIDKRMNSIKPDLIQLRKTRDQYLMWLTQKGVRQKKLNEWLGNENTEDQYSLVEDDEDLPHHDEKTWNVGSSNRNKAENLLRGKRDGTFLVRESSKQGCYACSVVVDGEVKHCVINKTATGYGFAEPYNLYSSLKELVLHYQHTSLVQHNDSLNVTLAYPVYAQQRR

PI3K delta (PI3Kd) = target: T2, PI3K delta (PI3Kd) (Homo sapiens, UniProt O00329); experiment: kinobeads assay, PI3K delta (dot blot detection)
T2 construct: endogenous in cells; host or cells: Jurkat cells (ATCC TIB-152, clone E6-1), lysate
T2 sequence (O00329 whole entry): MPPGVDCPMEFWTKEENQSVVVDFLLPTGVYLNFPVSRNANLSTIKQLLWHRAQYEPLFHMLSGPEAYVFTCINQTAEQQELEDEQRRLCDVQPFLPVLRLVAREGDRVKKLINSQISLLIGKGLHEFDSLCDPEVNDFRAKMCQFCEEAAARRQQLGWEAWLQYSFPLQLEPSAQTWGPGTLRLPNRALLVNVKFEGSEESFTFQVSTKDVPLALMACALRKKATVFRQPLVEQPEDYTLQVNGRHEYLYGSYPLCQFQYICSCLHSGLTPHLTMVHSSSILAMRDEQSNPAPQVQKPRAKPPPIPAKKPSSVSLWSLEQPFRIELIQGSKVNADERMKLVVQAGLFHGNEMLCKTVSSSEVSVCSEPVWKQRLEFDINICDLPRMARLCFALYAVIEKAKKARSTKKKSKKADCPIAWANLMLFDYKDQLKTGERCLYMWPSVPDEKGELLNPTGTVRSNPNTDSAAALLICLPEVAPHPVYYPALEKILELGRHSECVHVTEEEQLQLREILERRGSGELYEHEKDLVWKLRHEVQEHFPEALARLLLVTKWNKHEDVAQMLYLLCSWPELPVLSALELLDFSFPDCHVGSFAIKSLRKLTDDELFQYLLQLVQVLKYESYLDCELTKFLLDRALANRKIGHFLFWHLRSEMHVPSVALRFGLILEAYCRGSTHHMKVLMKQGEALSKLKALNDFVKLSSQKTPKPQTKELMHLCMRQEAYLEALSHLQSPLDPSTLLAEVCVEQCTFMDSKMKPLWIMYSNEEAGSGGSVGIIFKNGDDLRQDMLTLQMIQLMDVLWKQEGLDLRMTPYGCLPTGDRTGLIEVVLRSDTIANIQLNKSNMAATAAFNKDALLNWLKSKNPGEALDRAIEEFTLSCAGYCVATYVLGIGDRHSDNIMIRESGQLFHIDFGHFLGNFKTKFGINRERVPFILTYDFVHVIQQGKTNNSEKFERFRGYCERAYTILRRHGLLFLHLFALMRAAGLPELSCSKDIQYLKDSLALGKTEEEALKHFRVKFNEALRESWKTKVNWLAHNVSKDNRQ
T2 sequence (P27986 whole entry partner): as the sequence (P27986 whole entry partner) above
Outline: (§1)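 Jurkat cell lysate (5 mg/ml protein) was incubated with test compounds and kinobeads (immobilized phenylthiazole and phenylmorpholin-chromen ligands) for 2 h in the cold with shaking. Bead-bound kinase was SDS-eluted and quantified by antibody dot blot with infrared detection. IC50 values came from dose-response curves.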

PI3Kβ = target: T3, PI3Kβ (Homo sapiens, UniProt P42338); experiment: kinobeads assay, PI3K beta (dot blot detection); conditions: Table 4, read-out: Inhibition values (IC50) PI3Kb
T3 construct: endogenous in cells; host or cells: Jurkat cells (ATCC TIB-152) lysate, the only lysate described
T3 sequence (P42338 whole entry): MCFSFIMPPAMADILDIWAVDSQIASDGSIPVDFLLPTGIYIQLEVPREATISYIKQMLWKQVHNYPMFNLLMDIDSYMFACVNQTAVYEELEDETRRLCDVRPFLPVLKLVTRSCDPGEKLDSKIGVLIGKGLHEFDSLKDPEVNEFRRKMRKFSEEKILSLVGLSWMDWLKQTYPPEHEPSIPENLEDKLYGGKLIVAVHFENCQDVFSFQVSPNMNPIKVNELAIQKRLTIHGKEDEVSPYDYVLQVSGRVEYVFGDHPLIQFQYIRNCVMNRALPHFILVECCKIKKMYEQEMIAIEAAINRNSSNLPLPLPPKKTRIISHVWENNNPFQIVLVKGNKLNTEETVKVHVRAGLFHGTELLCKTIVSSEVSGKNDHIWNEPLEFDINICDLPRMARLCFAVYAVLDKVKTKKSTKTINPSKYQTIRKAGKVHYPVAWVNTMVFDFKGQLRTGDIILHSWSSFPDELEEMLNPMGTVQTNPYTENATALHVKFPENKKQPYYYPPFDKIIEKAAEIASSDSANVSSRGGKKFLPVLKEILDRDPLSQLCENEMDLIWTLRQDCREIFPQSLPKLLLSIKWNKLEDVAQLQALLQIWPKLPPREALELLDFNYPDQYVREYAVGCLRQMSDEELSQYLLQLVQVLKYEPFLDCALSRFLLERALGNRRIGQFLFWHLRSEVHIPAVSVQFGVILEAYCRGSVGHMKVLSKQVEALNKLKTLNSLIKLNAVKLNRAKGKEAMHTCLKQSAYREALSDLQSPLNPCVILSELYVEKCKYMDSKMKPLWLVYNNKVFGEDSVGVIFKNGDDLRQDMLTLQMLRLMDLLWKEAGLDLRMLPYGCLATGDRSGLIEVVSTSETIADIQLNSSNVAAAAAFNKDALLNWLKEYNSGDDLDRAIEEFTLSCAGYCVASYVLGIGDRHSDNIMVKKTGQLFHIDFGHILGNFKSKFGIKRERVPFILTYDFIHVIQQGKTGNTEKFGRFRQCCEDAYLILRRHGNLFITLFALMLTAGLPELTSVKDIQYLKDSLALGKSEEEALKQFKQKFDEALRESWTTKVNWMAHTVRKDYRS
T3 sequence (P27986 whole entry partner): as the sequence (P27986 whole entry partner) above

[1] = target: T4, DNA-dependent protein kinase (DNA-PK) (Homo sapiens, UniProt P78527); experiment: kinobeads assay, DNA-PK (dot blot detection)
T4 construct: endogenous in cells; host or cells: Jurkat cells (ATCC TIB-152, clone E6-1), lysate
Outline: as §1

kinases (kinome) [2] = target: T5, kinases (kinome) (Homo sapiens, UniProt Q96GD4); experiment: kinobeads assay with mass spectrometry detection of kinases (kinase selectivity profile); conditions: AurB (Other), IPI00796914
T5 construct: determined in kinobeads assays with mass spectrometry detection of kinases as described previously; endogenous in cells; host or cells: cell lysate
T5 sequence (Q96GD4 whole entry): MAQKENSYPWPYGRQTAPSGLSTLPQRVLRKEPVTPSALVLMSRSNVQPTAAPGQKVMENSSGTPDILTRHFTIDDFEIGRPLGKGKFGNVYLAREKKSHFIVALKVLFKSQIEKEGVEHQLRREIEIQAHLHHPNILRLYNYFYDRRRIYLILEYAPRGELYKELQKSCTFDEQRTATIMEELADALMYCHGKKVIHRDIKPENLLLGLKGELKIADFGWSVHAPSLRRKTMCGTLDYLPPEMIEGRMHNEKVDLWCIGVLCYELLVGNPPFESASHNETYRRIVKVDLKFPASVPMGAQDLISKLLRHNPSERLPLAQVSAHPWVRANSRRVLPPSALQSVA
From the text: (§2) The protein kinase complement of the human genome (the kinome) was described previously (Manning et al., 2002. Science 298(5600):1912-1934). Sequence accession numbers are defined by the International Protein Index (IPI) (Kersey et al., 2004. Proteomics 4(7):1985-1988).

kinases (kinome) [3] = target: T6, kinases (kinome) (Homo sapiens, UniProt P09769); experiment: as above; conditions: FGR (TK), IPI00016871
T6 construct: determined in kinobeads assays with mass spectrometry detection of kinases as described previously; endogenous in cells; host or cells: cell lysate
T6 sequence (P09769 whole entry): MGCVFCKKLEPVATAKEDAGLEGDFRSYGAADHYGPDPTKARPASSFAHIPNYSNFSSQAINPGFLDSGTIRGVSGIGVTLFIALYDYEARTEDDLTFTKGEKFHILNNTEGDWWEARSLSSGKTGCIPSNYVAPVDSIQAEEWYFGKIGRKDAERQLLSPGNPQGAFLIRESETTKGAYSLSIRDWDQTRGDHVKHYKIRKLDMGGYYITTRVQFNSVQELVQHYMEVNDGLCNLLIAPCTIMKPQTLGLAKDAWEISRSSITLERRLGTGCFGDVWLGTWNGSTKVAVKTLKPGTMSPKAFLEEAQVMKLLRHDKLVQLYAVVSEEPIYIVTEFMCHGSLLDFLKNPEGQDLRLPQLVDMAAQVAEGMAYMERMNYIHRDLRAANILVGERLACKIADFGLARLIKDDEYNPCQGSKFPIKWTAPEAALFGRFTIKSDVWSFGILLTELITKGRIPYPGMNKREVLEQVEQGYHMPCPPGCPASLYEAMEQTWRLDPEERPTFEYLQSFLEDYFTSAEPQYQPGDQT
From the text: as §2

[4] = Table 2, Jurkat cell lysate, read-out: Inhibition values (IC50) PI3Kd
[5] = Table 4, read-out: Inhibition values (IC50) PI3Kd
[6] = Table 2, Jurkat cell lysate, read-out: Inhibition values (IC50) DNAPK
[7] = Table 4, read-out: Inhibition values (IC50) DNAPK

Row | Compound | IC50 (PI3Kα) [µM] | IC50 (PI3K delta (PI3Kd); [4]) [µM] | IC50 (PI3K delta (PI3Kd); [5]) [µM] | IC50 (PI3Kβ) [µM] | IC50 [1, 6] [µM] | IC50 [1, 7] [µM] | IC50 (kinases (kinome) [2]) [µM] | IC50 (kinases (kinome) [3]) [µM]
1 | CCNC(=O)Nc1ccc(-c2cc(-c3ccccc3C#N)nc(N3CCOC[C@@H]3C)n2)cc1 [Example 8, (S)-1-(4-(6-(2-cyanophenyl)-2-(3-methylmorpholino)pyrimidin-4-yl)phenyl)-3-ethylurea] | – | ≥ 10 | ≥ 10 | – | ≥ 10 | ≥ 10 | > 10 | > 10
2 | C[C@H]1COCCN1c1nc(-c2ccc(NC(=O)NCCF)cc2)cc(-c2cc(F)ccc2S(C)(=O)=O)n1 [Example 44, (S)-1-(4-(6-(5-fluoro-2-(methylsulfonyl)phenyl)-2-(3-methylmorpholino)pyrimidin-4-yl)phenyl)-3-(2-fluoroethyl)urea] | ≥ 10 | ≥ 10 | ≥ 10 | ≥ 10 | ≥ 10 | ≥ 10 | – | –
3 | C[C@H]1COCCN1c1nc(-c2ccc(NC(=O)NCC(F)F)cc2)cc(-c2cc(F)ccc2S(C)(=O)=O)n1 [Example 47, (S)-1-(2,2-difluoroethyl)-3-(4-(6-(5-fluoro-2-(methylsulfonyl)phenyl)-2-(3-methylmorpholino)pyrimidin-4-yl)phenyl)urea] | ≥ 10 | ≥ 10 | ≥ 10 | ≥ 10 | ≥ 10 | ≥ 10 | – | –
4 | C[C@H]1COCCN1c1nc(-c2ccc(NC(=O)NCCCO)cc2)cc(-c2cc(F)ccc2S(C)(=O)=O)n1 [Example 64, (S)-1-(4-(6-(5-fluoro-2-(methylsulfonyl)phenyl)-2-(3-methylmorpholino)pyrimidin-4-yl)phenyl)-3-(3-hydroxypropyl)urea] | ≥ 10 | ≥ 10 | ≥ 10 | ≥ 10 | ≥ 10 | ≥ 10 | – | –
5 | C[C@H]1COCCN1c1nc(-c2ccc(NC(=O)NC3CC3)cc2)cc(-c2ccccc2S(C)(=O)=O)n1 [Example 4, (S)-1-cyclopropyl-3-(4-(2-(3-methylmorpholino)-6-(2-(methylsulfonyl)phenyl)pyrimidin-4-yl)phenyl)urea] | ≥ 10 | ≥ 10 | ≥ 10 | ≥ 10 | ≥ 10 | ≥ 10 | > 10 | > 10
6 | CS(=O)(=O)c1ccc(F)cc1-c1cc(-c2ccc(NC(=O)NCCO)cc2)nc(N2CCOCC2)n1 [Example 62, 1-(4-(6-(5-fluoro-2-(methylsulfonyl)phenyl)-2-morpholinopyrimidin-4-yl)phenyl)-3-(2-hydroxyethyl)urea] | ≥ 10 | ≥ 10 | ≥ 10 | ≥ 10 | ≥ 10 | ≥ 10 | – | –
7 | O=C(Nc1ccncc1)Nc1ccc(-c2nccc(N3CC4CCC(C3)O4)n2)cc1 [Example 61, 1-(4-(4-(8-oxa-3-azabicyclo[3.2.1]octan-3-yl)pyrimidin-2-yl)phenyl)-3-(pyridin-4-yl)urea] | ≥ 10 | ≥ 10 | ≥ 10 | ≥ 10 | ≥ 10 | 1 to 10 | – | –
8 | C[C@H]1COCCN1c1cc(-c2ccccn2)nc(-c2ccc(NC(=O)NC3CC3)cc2)n1 [Example 42, (S)-1-cyclopropyl-3-(4-(4-(3-methylmorpholino)-6-(pyridin-2-yl)pyrimidin-2-yl)phenyl)urea] | ≥ 10 | ≥ 10 | ≥ 10 | ≥ 10 | ≥ 10 | ≥ 10 | – | –
9 | C[C@H]1COCCN1c1nc(-c2ccc(NC(=O)NC3CC3)cc2)cc(-c2cccnc2S(C)(=O)=O)n1 [Example 46, (S)-1-cyclopropyl-3-(4-(2-(3-methylmorpholino)-6-(2-(methylsulfonyl)pyridin-3-yl)pyrimidin-4-yl)phenyl)urea] | ≥ 10 | ≥ 10 | ≥ 10 | ≥ 10 | ≥ 10 | ≥ 10 | > 10 | > 10
10 | C[C@H]1COCCN1c1nc(-c2ccc(NC(=O)N[C@H]3CCC[C@@H]3O)cc2)cc(-c2cc(F)ccc2S(C)(=O)=O)n1 [Example 76, 1-(4-(6-(5-fluoro-2-(methylsulfonyl)phenyl)-2-((S)-3-methylmorpholino)pyrimidin-4-yl)phenyl)-3-((1S,2S)-2-hydroxycyclopentyl)urea] | ≥ 10 | – | ≥ 10 | ≥ 10 | – | ≥ 10 | > 10 | > 10
11 | C[C@H]1COCCN1c1cc(-c2ccccn2)nc(-c2ccc(NC(=O)NCCO)cc2)n1 [Example 43, (S)-1-(2-hydroxyethyl)-3-(4-(4-(3-methylmorpholino)-6-(pyridin-2-yl)pyrimidin-2-yl)phenyl)urea] | ≥ 10 | ≥ 10 | ≥ 10 | ≥ 10 | ≥ 10 | ≥ 10 | > 10 | > 10
12 | C[C@H]1COCCN1c1nc(-c2ccc(NC(=O)NC3CC3)cc2)cc(-c2cc(F)ccc2S(C)(=O)=O)n1 [Example 40, (S)-1-cyclopropyl-3-(4-(6-(5-fluoro-2-(methylsulfonyl)phenyl)-2-(3-methylmorpholino)pyrimidin-4-yl)phenyl)urea] | ≥ 10 | ≥ 10 | ≥ 10 | ≥ 10 | ≥ 10 | ≥ 10 | > 10 | > 10

Results, then the molecule that gave them:

Row | IC50 (PI3Kα) [µM] | IC50 (PI3K delta (PI3Kd); [4]) [µM] | IC50 (PI3K delta (PI3Kd); [5]) [µM] | IC50 (PI3Kβ) [µM] | IC50 [1, 6] [µM] | IC50 [1, 7] [µM] | IC50 (kinases (kinome) [2]) [µM] | IC50 (kinases (kinome) [3]) [µM] | Compound
13 | ≥ 10 | ≥ 10 | ≥ 10 | ≥ 10 | ≥ 10 | ≥ 10 | – | – | C[C@H]1COCCN1c1nc(-c2ccc(NC(=O)NCCO)cc2)cc(-c2cc(F)ccc2S(C)(=O)=O)n1 [Example 41, (S)-1-(4-(6-(5-fluoro-2-(methylsulfonyl)phenyl)-2-(3-methylmorpholino)pyrimidin-4-yl)phenyl)-3-(2-hydroxyethyl)urea]
14 | ≥ 10 | ≥ 10 | ≥ 10 | ≥ 10 | ≥ 10 | ≥ 10 | – | – | C[C@H]1COCCN1c1ccnc(-c2ccc(NC(=O)Nc3ccncc3)cc2)n1 [Example 60, (S)-1-(4-(4-(3-methylmorpholino)pyrimidin-2-yl)phenyl)-3-(pyridin-4-yl)urea]
15 | ≥ 10 | ≥ 10 | ≥ 10 | ≥ 10 | ≥ 10 | ≥ 10 | > 10 | > 10 | C[C@H]1COCCN1c1cc(-c2ccccc2S(C)(=O)=O)nc(-c2ccc(NC(=O)NC3CC3)cc2)n1 [Example 6, (S)-1-cyclopropyl-3-(4-(4-(3-methylmorpholino)-6-(2-(methylsulfonyl)phenyl)pyrimidin-2-yl)phenyl)urea]
16 | ≥ 10 | ≥ 10 | ≥ 10 | ≥ 10 | ≥ 10 | ≥ 10 | – | – | CCNC(=O)Nc1ccc(-c2cc(-c3cc(F)ccc3S(C)(=O)=O)nc(N3CCOC[C@@H]3C)n2)cc1 [Example 2, (S)-1-ethyl-3-(4-(6-(5-fluoro-2-(methylsulfonyl)phenyl)-2-(3-methylmorpholino)pyrimidin-4-yl)phenyl)urea]
17 | ≥ 10 | ≥ 10 | ≥ 10 | ≥ 10 | ≥ 10 | ≥ 10 | – | – | C[C@H]1COCCN1c1cc(-c2ccc(F)nc2)nc(-c2ccc(NC(=O)NC3CC3)cc2)n1 [Example 21, (S)-1-cyclopropyl-3-(4-(4-(6-fluoropyridin-3-yl)-6-(3-methylmorpholino)pyrimidin-2-yl)phenyl)urea]
18 | ≥ 10 | ≥ 10 | ≥ 10 | ≥ 10 | ≥ 10 | ≥ 10 | – | – | C[C@H]1COCCN1c1cc(-c2cncc(F)c2)nc(-c2ccc(NC(=O)NC3CC3)cc2)n1 [Example 23, (S)-1-cyclopropyl-3-(4-(4-(5-fluoropyridin-3-yl)-6-(3-methylmorpholino)pyrimidin-2-yl)phenyl)urea]
